# Patent publication US8278345B2, “Inhibitors of glutaminyl cyclase” (Probiodrug AG, priority 2006, dated 2012)
# Biological target: hQC (Homo sapiens, UniProt Q16769)
# Assay: Inhibitor assay for glutaminyl cyclase activity (fluorometric, H-Gln-βNA / H-Gln-AMC)
# Type: biochemical
# Conditions: compound from preparative synthesis, purified
# Outline: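 Coupled fluorometric assay at 30 °C with pyroglutamyl aminopeptidase, in Tris/HCl pH 8.0 with EDTA, substrate H-Gln-βNA (0.2 mM; ex/em 320/410 nm) or H-Gln-AMC (ex/em 380/460 nm), initiated by QC. Screening: 4 mM inhibitor, substrate at 1 KM; Ki from progress curves fitted to competitive inhibition.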
# Sequence of hQC (Q16769 29-361): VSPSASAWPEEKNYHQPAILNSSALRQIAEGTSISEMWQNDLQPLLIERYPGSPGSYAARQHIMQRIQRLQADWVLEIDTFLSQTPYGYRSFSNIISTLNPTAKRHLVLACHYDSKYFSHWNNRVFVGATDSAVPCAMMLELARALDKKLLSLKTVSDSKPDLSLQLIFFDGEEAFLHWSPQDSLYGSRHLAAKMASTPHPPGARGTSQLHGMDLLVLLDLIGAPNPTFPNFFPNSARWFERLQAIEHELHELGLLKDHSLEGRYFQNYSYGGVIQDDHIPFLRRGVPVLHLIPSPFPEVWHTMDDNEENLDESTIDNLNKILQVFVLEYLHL
row,Ki,SMILES
1,11.6 nM,"CC1=C(O)C(=O)N(c2ccc3nc[nH]c3c2)C1c1cccc(F)c1F (stereo not shown) [Compound 467, 1-(1H-benzo[d]imidazol-6-yl)-5-(2,3-difluorophenyl)-3-hydroxy-4-methyl-1H-pyrrol-2(5H)-one]"

# Same assay, conditions: compound from preparative synthesis, purified; read-out: IC50 hQC
row,IC50,SMILES
1,156 nM,"CSCC1=C(O)C(=O)N(c2ccc3[nH]cnc3c2)C1c1cc(Cl)ccc1O (stereo not shown) [Compound 336, 1-(1H-Benzoimidazol-5-yl)-5-(5-chloro-2-hydroxy-phenyl)-3-hydroxy-4-methylsulfanylmethyl-1,5-dihydro-pyrrol-2-one]"
2,370 nM,"O=C1C(O)=C(c2ccc(O)cc2)C(c2ccc3[nH]ccc3c2)N1CCCn1ccnc1 (stereo not shown) [Compound 155, 3-Hydroxy-4-(4-hydroxy-phenyl)-1-(3-imidazol-1-yl-propyl)-5-(1H-indol-5-yl)-1,5-dihydro-pyrrol-2-one]"

# Same assay, conditions: read-out: IC50
row,SMILES,IC50
1,"CC1=C(O)C(=O)N(c2ccc3[nH]cnc3c2)C1c1ccc2nsnc2c1 (stereo not shown) [Compound 380, 1-(1H-Benzoimidazol-5-yl)-5-benzo[c][1,2,5]thiadiazol-5-yl-3-hydroxy-4-methyl-1,5-dihydro-pyrrol-2-one]",1030 nM
2,"CCCCC1C(C)=C(O)C(=O)N1CCCn1ccnc1 (stereo not shown) [Compound 48, 5-Butyl-3-hydroxy-1-(3-imidazol-1-yl-propyl)-4-methyl-1,5-dihydro-pyrrol-2-one]",2200 nM
3,"O=C1C(O)=C(c2ccccc2)C(c2ccc(N3CCCC3)cc2)N1c1ccc2[nH]cnc2c1 (stereo not shown) [Compound 309, 1-(1H-Benzoimidazol-5-yl)-3-hydroxy-4-phenyl-5-(4-pyrrolidin-1-yl-phenyl)-1,5-dihydro-pyrrol-2-one]",6880 nM
4,"CCC1=C(O)C(=O)N(c2ccc3[nH]cnc3c2)C1c1cc(Br)c(O)c(Br)c1 (stereo not shown) [Compound 288, 1-(1H-Benzoimidazol-5-yl)-5-(3,5-dibromo-4-hydroxy-phenyl)-4-ethyl-3-hydroxy-1,5-dihydro-pyrrol-2-one]",2290 nM
5,"CC(=O)C1=C(O)C(=O)N(c2ccc3[nH]cnc3c2)C1C1=CCCCC1 (stereo not shown) [Compound 312, 4-Acetyl-1-(1H-benzoimidazol-5-yl)-5-cyclohex-1-enyl-3-hydroxy-1,5-dihydro-pyrrol-2-one]",1840 nM
6,"CC1=C(O)C(=O)N(c2ccc3[nH]cnc3c2)C1c1cc(Cl)ccc1O (stereo not shown) [Compound 337, 1-(1H-Benzoimidazol-5-yl)-5-(5-chloro-2-hydroxy-phenyl)-3-hydroxy-4-methyl-1,5-dihydro-pyrrol-2-one]",5800 nM
7,"CC(C)C1=C(O)C(=O)N(CCCn2ccnc2)C1c1ccccc1O (stereo not shown) [Compound 60, 3-Hydroxy-5-(2-hydroxy-phenyl)-1-(3-imidazol-1-yl-propyl)-4-isopropyl-1,5-dihydro-pyrrol-2-one]",9400 nM
8,"O=C1C(O)=C(c2cccc(O)c2)C(c2ccccc2O)N1CCCn1ccnc1 (stereo not shown) [Compound 14, 3-Hydroxy-5-(2-hydroxy-phenyl)-4-(3-hydroxy-phenyl)-1-(3-imidazol-1-yl-propyl)-1,5-dihydro-pyrrol-2-one]",2200 nM
9,"CC(C)/C=C/C1C(c2c[nH]c3ccccc23)=C(O)C(=O)N1CCCn1ccnc1 (stereo not shown) [Compound 118, 3-Hydroxy-1-(3-imidazol-1-yl-propyl)-4-(1H-indol-3-yl)-5-(3-methyl-but-1-enyl)-1,5-dihydro-pyrrol-2-one]",1300 nM
10,"CC1=C(O)C(=O)N(c2ccc3[nH]cnc3c2)C1c1ccc(Cl)c(C(F)(F)F)c1 (stereo not shown) [Compound 460, 1-(1H-Benzoimidazol-5-yl)-5-(4-chloro-3-trifluoromethyl-phenyl)-3-hydroxy-4-methyl-1,5-dihydro-pyrrol-2-one]",9850 nM
11,"O=C(C1=C(O)C(=O)N(c2ccc3[nH]cnc3c2)C1c1ncc[nH]1)C1CCCCC1 (stereo not shown) [Compound 435, 1-(1H-Benzoimidazol-5-yl)-4-cyclohexanecarbonyl-3-hydroxy-5-(1H-imidazol-2-yl)-1,5-dihydro-pyrrol-2-one]",6970 nM
12,"CC1=C(O)C(=O)N(c2ccc3[nH]cnc3c2)C1c1c(F)c(F)cc(F)c1F (stereo not shown) [Compound 393, 1-(1H-Benzoimidazol-5-yl)-3-hydroxy-4-methyl-5-(2,3,5,6-tetrafluoro-phenyl)-1,5-dihydro-pyrrol-2-one]",4090 nM
13,"CC1=C(O)C(=O)N(CCCn2ccnc2)C1c1ccncc1 (stereo not shown) [Compound 44, 3-Hydroxy-1-(3-imidazol-1-yl-propyl)-4-methyl-5-pyridin-4-yl-1,5-dihydro-pyrrol-2-one]",3100 nM
14,"CC(C)(C)C(=O)C1=C(O)C(=O)N(c2ccc3[nH]cnc3c2)C1c1cc(F)cc(F)c1F (stereo not shown) [Compound 341, 1-(1H-Benzoimidazol-5-yl)-4-(2,2-dimethyl-propionyl)-3-hydroxy-5-(2,3,5-trifluoro-phenyl)-1,5-dihydro-pyrrol-2-one]",4900 nM
15,"O=C1C(O)=C(c2ccccc2)C(c2ncc[nH]2)N1CCCn1ccnc1 (stereo not shown) [Compound 98, 3-Hydroxy-5-(1H-imidazol-2-yl)-1-(3-imidazol-1-yl-propyl)-4-phenyl-1,5-dihydro-pyrrol-2-one]",1300 nM
16,"O=C1C(O)=C(c2cccc(O)c2)C(C(O)CO)N1CCCn1ccnc1 (stereo not shown) [Compound 9, 5-(1,2-Dihydroxy-ethyl)-3-hydroxy-4-(3-hydroxy-phenyl)-1-(3-imidazol-1-yl-propyl)-1,5-dihydro-pyrrol-2-one]",2200 nM
17,"CC(=O)C1=C(O)C(=O)N(c2ccc3[nH]cnc3c2)C1CCC(=O)O (stereo not shown) [Compound 450, 3-[3-Acetyl-1-(1H-benzoimidazol-5-yl)-4-hydroxy-5-oxo-2,5-dihydro-1H-pyrrol-2-yl]-propionic acid]",9490 nM
18,"CC1=C(O)C(=O)N(CCCn2ccnc2)C1C1CC1 (stereo not shown) [Compound 46, 5-Cyclopropyl-3-hydroxy-1-(3-imidazol-1-yl-propyl)-4-methyl-1,5-dihydro-pyrrol-2-one]",2200 nM
19,"O=C(C1=C(O)C(=O)N(c2ccc3[nH]cnc3c2)C1c1ccc(CO)o1)c1ccncc1 (stereo not shown) [Compound 272, 1-(1H-Benzoimidazol-5-yl)-3-hydroxy-5-(5-hydroxymethyl-furan-2-yl)-4-(pyridine-4-carbonyl)-1,5-dihydro-pyrrol-2-one]",3730 nM
20,"CCC1=C(O)C(=O)N(CCCn2ccnc2)C1C1CCC=CO1 (stereo not shown) [Compound 237, 5-(3,4-Dihydro-2H-pyran-2-yl)-4-ethyl-3-hydroxy-1-(3-imidazol-1-yl-propyl)-1,5-dihydro-pyrrol-2-one]",400 nM
21,"CC(C)C1=C(O)C(=O)N(CCCn2ccnc2)C1C1=CCCCC1 (stereo not shown) [Compound 67, 5-Cyclohex-1-enyl-3-hydroxy-1-(3-imidazol-1-yl-propyl)-4-isopropyl-1,5-dihydro-pyrrol-2-one]",2200 nM
22,"O=C(C1=C(O)C(=O)N(c2ccc3[nH]cnc3c2)C1c1ccc[nH]1)C1CCCCC1 (stereo not shown) [Compound 452, 1-(1H-Benzoimidazol-5-yl)-3-cyclohexanecarbonyl-4-hydroxy-1,2-dihydro-1′H-[2,2′]bipyrrolyl-5-one]",5080 nM
23,"Cc1cccc(C2C(C(=O)C3CCCCC3)=C(O)C(=O)N2c2ccc3[nH]cnc3c2)n1 (stereo not shown) [Compound 381, 1-(1H-Benzoimidazol-5-yl)-4-cyclohexanecarbonyl-3-hydroxy-5-(6-methyl-pyridin-2-yl)-1,5-dihydro-pyrrol-2-one]",1750 nM
24,"CC1=C(O)C(=O)N(CCCn2ccnc2)C1C (stereo not shown) [Compound 31, 3-Hydroxy-1-(3-imidazol-1-yl-propyl)-4,5-dimethyl-1,5-dihydro-pyrrol-2-one]",6700 nM

# The remaining lines, values ahead:
row,IC50,SMILES
1,40 nM,"CC(C)C1=C(O)C(=O)N(CCCn2ccnc2)C1Cc1ccccc1 (stereo not shown) [Compound 68, 5-Benzyl-3-hydroxy-1-(3-imidazol-1-yl-propyl)-4-isopropyl-1,5-dihydro-pyrrol-2-one]"
2,40 nM,"CCCCCC1C(C(C)C)=C(O)C(=O)N1CCCn1ccnc1 (stereo not shown) [Compound 62, 3-Hydroxy-1-(3-imidazol-1-yl-propyl)-4-isopropyl-5-pentyl-1,5-dihydro-pyrrol-2-one]"
3,400 nM,"Cc1ccc(C2C(C(C)C)=C(O)C(=O)N2CCCn2ccnc2)cc1 (stereo not shown) [Compound 54, 3-Hydroxy-1-(3-imidazol-1-yl-propyl)-4-isopropyl-5-p-tolyl-1,5-dihydro-pyrrol-2-one]"
4,40 nM,"CCCCCC1=C(O)C(=O)N(CCCn2ccnc2)C1c1ccc(C)c(C)c1 (stereo not shown) [Compound 195, 5-(3,4-Dimethyl-phenyl)-3-hydroxy-1-(3-imidazol-1-yl-propyl)-4-pentyl-1,5-dihydro-pyrrol-2-one]"
5,40 nM,"O=C1C(O)=C(c2ccc(O)cc2)C(C2CC2)N1CCCn1ccnc1 (stereo not shown) [Compound 175, 5-Cyclopropyl-3-hydroxy-4-(4-hydroxy-phenyl)-1-(3-imidazol-1-yl-propyl)-1,5-dihydro-pyrrol-2-one]"
6,40 nM,"O=C1C(O)=C(c2c[nH]c3ccccc23)C(c2ccncc2)N1CCCn1ccnc1 (stereo not shown) [Compound 136, 3-Hydroxy-1-(3-imidazol-1-yl-propyl)-4-(1H-indol-3-yl)-5-pyridin-4-yl-1,5-dihydro-pyrrol-2-one]"
7,52.6 nM,"CC1=C(O)C(=O)N(c2ccc3nc[nH]c3c2)C1c1cccc(F)c1F (stereo not shown) [Compound 467, 1-(1H-benzo[d]imidazol-6-yl)-5-(2,3-difluorophenyl)-3-hydroxy-4-methyl-1H-pyrrol-2(5H)-one]"
8,310 nM,"CSCC1=C(O)C(=O)N(c2ccc3[nH]cnc3c2)C1c1cc(Cl)ccc1O (stereo not shown) [Compound 336, 1-(1H-Benzoimidazol-5-yl)-5-(5-chloro-2-hydroxy-phenyl)-3-hydroxy-4-methylsulfanylmethyl-1,5-dihydro-pyrrol-2-one]"
9,40 nM,"O=C1C(O)=C(c2ccc(O)cc2)C(c2ccc3[nH]ccc3c2)N1CCCn1ccnc1 (stereo not shown) [Compound 155, 3-Hydroxy-4-(4-hydroxy-phenyl)-1-(3-imidazol-1-yl-propyl)-5-(1H-indol-5-yl)-1,5-dihydro-pyrrol-2-one]"
10,40 nM,"CCCCCC1C(c2ccccc2)=C(O)C(=O)N1CCCn1ccnc1 (stereo not shown) [Compound 89, 3-Hydroxy-1-(3-imidazol-1-yl-propyl)-5-pentyl-4-phenyl-1,5-dihydro-pyrrol-2-one]"
11,400 nM,"CC1=C(O)C(=O)N(CCCn2ccnc2)C1c1cc(Cl)cc(Cl)c1O (stereo not shown) [Compound 20, 5-(3,5-Dichloro-2-hydroxy-phenyl)-3-hydroxy-1-(3-imidazol-1-yl-propyl)-4-methyl-1,5-dihydro-pyrrol-2-one]"
12,400 nM,"CCC1C(c2ccccc2)=C(O)C(=O)N1CCCn1ccnc1 (stereo not shown) [Compound 108, 5-Ethyl-3-hydroxy-1-(3-imidazol-1-yl-propyl)-4-phenyl-1,5-dihydro-pyrrol-2-one]"
13,400 nM,"O=C1C(O)=C(c2c[nH]c3ccccc23)C(c2cc[nH]n2)N1CCCn1ccnc1 (stereo not shown) [Compound 116, 3-Hydroxy-1-(3-imidazol-1-yl-propyl)-4-(1H-indol-3-yl)-5-(1H-pyrazol-3-yl)-1,5-dihydro-pyrrol-2-one]"
